Consider 54 molecules from the OPERA property sets (Mansouri et al. 2018).

What is called logP is the decadic logarithm of the partition coefficient of the neutral form, usually between octanol and water. Read a high logP as a more lipophilic compound. Take `O=[N+]([O-])c1cc(Cl)c(Cl)cc1Cl`: the logP amounted to 3.48.

`CN1CCC(CN2c3ccccc3Sc3ccccc32)C1` (centres undefined) had a logP of 5.23.

As to `CN(C)C(=O)N(c1ccccc1)c1ccccc1`, the logP is 2.8.

In turn, `C#CCO` gave a logP of -0.38.

Turning to `O=c1[nH]cnc2ccccc12`, the lipophilicity (logP) was 0.77.

Consider `O=C(NP(=O)(N1CC1)N1CC1)c1ccc(Cl)cc1`, for which the logP came to 0.97.

`CSCS(=O)CC(C)NC(=O)C=Cc1c(C)[nH]c(=O)[nH]c1=O` (centres undefined) gave a logP of -0.7.

`O=C(COc1ccccc1)Nc1ccccc1` gave a log partition coefficient (logP) of 2.73.

In the case of `NC(C(=O)OCn1ncc2c(=O)[nH]cnc21)c1ccccc1` (centres undefined), the logP was -0.15.

For `CC(C)(CCC(=O)O)C(=O)O`, the logP came to 0.67.

`Nc1ccc(C(=O)Oc2cccc(Cl)c2)c(O)c1` displayed a logP of 3.9.

Molecule `Nc1nc2[nH]cnc2c(=O)[nH]1` yielded a logP of -0.91.

`Cc1ncc([N+](=O)[O-])n1CCS(=O)(=O)C(C)C` registered a logP of 0.13.

For `CCOC(=O)c1cc(O)c(O)c(O)c1`, the logP came out at 1.3.

The molecule `CCCC(O)CCC` gave a logP of 2.22.

Turning to `COc1cc(S(C)=O)ccc1-c1nc2nccnc2[nH]1` (centres undefined), the logP is 0.66.

`CCOP(=O)(OCC)Oc1ccc(SC)cc1Cl`: the logP came to 3.05.

For `CC(=O)OC[C@H]1O[C@@H](n2ncc(=O)[nH]c2=O)[C@H](OC(C)=O)[C@@H]1OC(C)=O`, the logP was -0.2.

Molecule `CC(C(=O)O)(c1ccccc1)c1ccccc1` gave a logP of 2.69.

Turning to `CNC(=O)Oc1cccc(C(C)C)c1`, the logP worked out at 2.63.

With `O=C(O)CCc1c[nH]c2ccccc12`, the logP is 1.75.

The molecule `O=[As](O)(O)c1ccccc1` came in with a logP of 0.06.

`CNC(=O)ON=C(C)SC` had a logP of 0.6.

With `Oc1cc(O)cc(O)c1`, the logP was 0.16.

Take `CCCCCc1ccc(N)cc1`: the logP amounted to 3.39.

In the case of `[O-][n+]1ccccc1`, the logP is -1.2.

Regarding `CC(C)(C)C(O)C(Oc1ccc(-c2ccccc2)cc1)n1cncn1` (centres undefined), the lipophilicity (logP) was found to be 4.16.

In the case of `CCCCCF`, the logP was 2.33.

The molecule `CCCSCS(=O)CC(CO)NC(=O)C=Cc1c(C)[nH]c(=O)[nH]c1=O` (centres undefined) displayed a logP of -0.67.

The molecule `O=C1NCCN1c1ncc([N+](=O)[O-])s1` gave a logP of 0.95.

As to `O=c1nn[nH]c2ccccc12`, the logP turned out to be 0.83.

For the molecule `Cc1ccccn1`, the logP came to 1.11.

`Cn1ccc2ccccc21` came in with a logP of 2.72.

`CCC1(C2=CCCCC2)C(=O)NC(=O)N(C)C1=O` (centres undefined) returned a logP of 2.25.

Regarding `CCCOP(=O)(OCCC)OCCC`, the logP came to 1.87.

Molecule `C=C1C(=O)OC2C1CCC(C)C1(O)C=CC(=O)C21C` (centres undefined) returned a logP of 0.77.

Molecule `C=CCC1(C(C)CCC)C(=O)NC(=S)NC1=O` (centres undefined) showed a logP of 3.23.

For `CN(C)C(=O)Nc1cccc(Cl)c1`, the logP was 2.

The molecule `Cc1ccncc1` yielded a logP of 1.22.

Consider `CCc1cc(OP(=S)(OC)OC)ccc1[N+](=O)[O-]`, for which the logP was 3.74.

On to `NNC(=O)c1ccccc1O`, for which the logP is 0.6.

As to `COc1ccc(Cl)nn1`, the log partition coefficient (logP) came to 0.89.

Turning to `COP(=O)(OC)Oc1ccc([N+](=O)[O-])c(C(C)C)c1`, the logP is 2.57.

In turn, `CCOP(=O)(OCC)Oc1ccccc1` showed a logP of 1.64.

`Cc1ccc(-c2cc3ccccn3c2)cc1` came in with a logP of 4.96.

For `CC(C)Oc1cccc(COC(=O)N(C)C)c1`, the logP was found to be 3.03.

`C#CC(C)N(C)C(=O)Nc1ccc(Cl)cc1` (centres undefined) yielded a logP of 3.

Consider `CCCCCCOC(N)=O`, for which the logP stood at 1.85.

As to `Oc1c(O)c(Cl)c(Cl)c(Cl)c1Cl`, the logP was 4.29.

For `C/C=C/C=C/C(=O)O`, the logP was 1.33.

`O=C1C=C(Br)C(=O)c2ccccc21`: the logP was 2.44.

Regarding `CCNC(=O)c1ccccc1`, the logP worked out at 1.28.

As for `CN1CC[C@]23CCCC[C@H]2[C@H]1Cc1ccc(O)cc13`, the logP stood at 3.11.

On to `CCN(CC)CCN`, for which the logP was 0.21.
